Values after ≈ are worked out from the molar mass of the structure shown.
What was measured:
[1] = tested on: K562/adr (drug-resistant, chronic myeloid leukemia, CML); experiment: MTT cell growth inhibition, K562/adr leukemia cells, 72 h; type: cell-based; conditions: Homo sapiens, K562/Adr
Method: (§1) The standard sample of tanshinone I (TA) and the 2-alkyl- or 2-aromatic-substituted tanshinone I derivatives of the present invention are sufficiently dissolved in dimethylsulfoxide to produce a stock solution of 10 mg/mL, which is refrigerated at 4° C. and stored in dark, and is diluted with cell culture medium to a desired concentration prior to experimentation.
(§2) Obtaining 6000 well-growing leukemia cells and inoculating them into wells of a 96-well cell culture plate. The culture medium is the RPMI-1640 cell culture medium containing 10% fetal bovine serum. After adding on the second day the 2-alkyl- or 2-aromatic-substituted tanshinone I derivatives of different concentrations and mixing uniformly, placing the plate in a carbon dioxide cell incubator (5% CO2) at 37° C. and incubated for 72 hours. Then the viable cell concentration is determined by MTT method. In this experiment, the cell viability in control group (not treated with any compound) is set as 100%, and the cell viability (%) after treatment by the compounds and the half maximum inhibitory concentration for the leukemia cell at 72 hours (IC50 value of 72 hours, μg/mL) are calculated.

[2] = tested on: Kasumi-1 (acute myeloid leukemia M2 type, AML-M2); experiment: MTT cell growth inhibition, Kasumi-1 leukemia cells, 72 h; type: cell-based; conditions: Homo sapiens, Kasumi-1, 72 h
Method: as §1, §2

[3] = tested on: NB4 (acute promyelocytic leukemia, AML); experiment: MTT cell growth inhibition, NB4 leukemia cells, 72 h; type: cell-based; conditions: NB4, 72 h
Method: as §1, §2

[4] = tested on: Jurkat (acute lymphoblastic leukemia, ALL); experiment: MTT cell growth inhibition, Jurkat leukemia cells, 72 h; type: cell-based
Method: as §1, §2

[5] = tested on: H9 (acute lymphoblastic leukemia, ALL); experiment: MTT cell growth inhibition, H9 leukemia cells, 72 h; type: cell-based; conditions: H9, 72 h
Method: as §1, §2

[6] = tested on: RPMI8226 (multiple myeloma); experiment: MTT cell growth inhibition, RPMI8226 multiple myeloma cells, 72 h; type: cell-based, human
Method: as §1, §2

[7] = tested on: A549 (human lung cancer); experiment: MTT cell growth inhibition, A549 cells, 72 h; type: cell-based; conditions: Homo sapiens, A549, 72 h
Method: as §1, with “with a” for “with”, “to the” for “to a”
(§3) Obtaining 6000 well-growing human solid tumor cells and inoculating them into wells of a 96-well cell culture plate. The culture medium is DMEM High Glucose cell culture medium containing 10% fetal bovine serum. The plate is placed in a carbon dioxide cell incubator (5% CO2) at 37° C. and incubated for 24 hours. After adding the 2-alkyl- or 2-aromatic-substituted tanshinone I derivatives of different concentrations and mixing uniformly, the plate is placed in a carbon dioxide cell incubator (5% CO2) at 37° C. and incubated for 72 hours. Then the viable cell concentration is determined by MTT method. In this experiment, the cell viability in control group (not treated with any compound) is set as 100%, and the cell viability (%) after treatment by the compounds and the half maximum inhibitory concentration for the leukemia cell at 72 hours (IC50 value of 72 hours, μg/mL) are calculated.

[8] = tested on: PANC-1 (pancreatic cancer); experiment: MTT cell growth inhibition, PANC-1 cells, 72 h; type: cell-based, human; conditions: Homo sapiens, PANC-1, 72 h
Method: as §1, with “with a” for “with”, “to the” for “to a”
as §3

[9] = tested on: Becap37 (human breast cancer cell); experiment: MTT cell growth inhibition, Becap37 cells, 72 h; type: cell-based
Method: as §1, with “with a” for “with”, “to the” for “to a”
as §3

[10] = tested on: MG63 (osteosarcoma); experiment: MTT cell growth inhibition, MG63 cells, 72 h; type: cell-based, human; conditions: Homo sapiens, MG-63, 72 h
Method: as §1, with “with a” for “with”, “to the” for “to a”
as §3

[11] = tested on: Hep G2 (human liver cancer cell); experiment: MTT cell growth inhibition, Hep G2 cells, 72 h; type: cell-based
Method: as §1, with “with a” for “with”, “to the” for “to a”
as §3

[12] = tested on: RKO (human colon adenocarcinoma cell); experiment: MTT cell growth inhibition, RKO cells, 72 h; type: cell-based
Method: as §1, with “with a” for “with”, “to the” for “to a”
as §3

[13] = tested on: U87 MG (malignant glioma cell); experiment: MTT cell growth inhibition, U87 MG cells, 72 h; type: cell-based, human
Method: as §1, with “with a” for “with”, “to the” for “to a”
as §3

[14] = tested on: Hela (human cervical cancer cell); experiment: MTT cell growth inhibition, Hela cells, 72 h; type: cell-based
Method: as §1, with “with a” for “with”, “to the” for “to a”
as §3

[15] = tested on: CaES-17 (esophageal cancer cell); experiment: MTT cell growth inhibition, CaES-17 cells, 72 h; type: cell-based, human; conditions: Homo sapiens, CaEs17, CaEs-17, 72 h
Method: as §1, with “with a” for “with”, “to the” for “to a”
as §3

[16] = tested on: CNE (nasopharyngeal carcinoma cell); experiment: MTT cell growth inhibition, CNE cells, 72 h; type: cell-based, human
Method: as §1, with “with a” for “with”, “to the” for “to a”
as §3

[17] = tested on: Hep-2 (laryngeal carcinoma); experiment: MTT cell growth inhibition, Hep-2 cells, 72 h; type: cell-based, human; conditions: Homo sapiens, HEp-2, 72 h
Method: as §1, with “with a” for “with”, “to the” for “to a”
as §3

[18] = tested on: MGC 803 (human gastric cancer cell); experiment: MTT cell growth inhibition, MGC 803 cells, 72 h; type: cell-based; conditions: Homo sapiens, MGC-803, 72 h
Method: as §1, with “with a” for “with”, “to the” for “to a”
as §3

[19] = tested on: PC-3 (prostate cancer); experiment: MTT cell growth inhibition, PC-3 cells, 72 h; type: cell-based, human; conditions: Homo sapiens, PC-3, 72 h
Method: as §1, with “with a” for “with”, “to the” for “to a”
as §3

[20] = tested on: SK-OV-3 (ovarian cancer cell); experiment: MTT cell growth inhibition, SK-OV-3 cells, 72 h; type: cell-based, human
Method: as §1, with “with a” for “with”, “to the” for “to a”
as §3

IC50 ([1]; read-out: IC50): 1.36 µg/mL (≈ 3.07 µM) | IC90 ([1]; read-out: IC90): 7.61 µg/mL (≈ 17.2 µM) | IC50 ([2]; read-out: IC50): 0.97 µg/mL (≈ 2.19 µM) | IC90 ([2]; read-out: IC90): 31.1 µg/mL (≈ 70.3 µM) | IC50 ([3]; read-out: IC50): 0.31 µg/mL (≈ 0.701 µM) | IC90 ([3]; read-out: IC90): 3.22 µg/mL (≈ 7.28 µM) | IC50 ([4]; Homo sapiens, 72 h, read-out: IC50): 0.48 µg/mL (≈ 1.08 µM) | IC90 ([4]; Homo sapiens, 72 h, read-out: IC90): > 16 µg/mL | IC50 ([5]; read-out: IC50): 3 µg/mL (≈ 6.78 µM) | IC90 ([5]; read-out: IC90): > 16 µg/mL | IC50 ([6]; Homo sapiens, RPMI 8226, 72 h, read-out: IC50): 0.58 µg/mL (≈ 1.31 µM) | IC90 ([6]; Homo sapiens, RPMI 8226, 72 h, read-out: IC90): 16.2 µg/mL (≈ 36.6 µM) | IC50 ([7]; read-out: IC50): 6.68 µg/mL (≈ 15.1 µM) | IC90 ([7]; read-out: IC90): 25.9 µg/mL (≈ 58.5 µM) | IC50 ([8]; read-out: IC50): 7.34 µg/mL (≈ 16.6 µM) | IC90 ([8]; read-out: IC90): 24.1 µg/mL (≈ 54.5 µM) | IC50 ([9]; Homo sapiens, Becap-37, 72 h, read-out: IC50): 1.99 µg/mL (≈ 4.5 µM) | IC90 ([9]; Homo sapiens, Becap-37, 72 h, read-out: IC90): 7.83 µg/mL (≈ 17.7 µM) | IC50 ([10]; read-out: IC50): 1.62 µg/mL (≈ 3.66 µM) | IC90 ([10]; read-out: IC90): 7.44 µg/mL (≈ 16.8 µM) | IC50 ([11]; Homo sapiens, HepG2, Hep G2, 72 h, read-out: IC50): 2.09 µg/mL (≈ 4.72 µM) | IC90 ([11]; Homo sapiens, HepG2, Hep G2, 72 h, read-out: IC90): 16.3 µg/mL (≈ 36.9 µM) | IC50 ([12]; Homo sapiens, RKO, 72 h, read-out: IC50): 0.87 µg/mL (≈ 1.97 µM) | IC90 ([12]; Homo sapiens, RKO, 72 h, read-out: IC90): 26.6 µg/mL (≈ 60 µM) | IC50 ([13]; Homo sapiens, U-87 MG, U87-MG, 72 h, read-out: IC50): 2.85 µg/mL (≈ 6.44 µM) | IC90 ([13]; Homo sapiens, U-87 MG, U87-MG, 72 h, read-out: IC90): 15.4 µg/mL (≈ 34.9 µM) | IC50 ([14]; Homo sapiens, HeLa, 72 h, read-out: IC50): 1.07 µg/mL (≈ 2.42 µM) | IC90 ([14]; Homo sapiens, HeLa, 72 h, read-out: IC90): 24 µg/mL (≈ 54.3 µM) | IC50 ([15]; read-out: IC50): 3.78 µg/mL (≈ 8.54 µM) | IC90 ([15]; read-out: IC90): > 16 µg/mL | IC50 ([16]; Homo sapiens, CNE, 72 h, read-out: IC50): 3.2 µg/mL (≈ 7.23 µM) | IC90 ([16]; Homo sapiens, CNE, 72 h, read-out: IC90): 45 µg/mL (≈ 102 µM) | IC50 ([17]; read-out: IC50): 5.27 µg/mL (≈ 11.9 µM) | IC90 ([17]; read-out: IC90): > 16 µg/mL | IC50 ([18]; read-out: IC50): 1.74 µg/mL (≈ 3.93 µM) | IC90 ([18]; read-out: IC90): 16 µg/mL (≈ 36.2 µM) | IC50 ([19]; read-out: IC50): 9.94 µg/mL (≈ 22.5 µM) | IC90 ([19]; read-out: IC90): > 16 µg/mL | IC50 ([20]; Homo sapiens, SK-OV-3, 72 h, read-out: IC50): 11.7 µg/mL (≈ 26.5 µM) | IC90 ([20]; Homo sapiens, SK-OV-3, 72 h, read-out: IC90): > 16 µg/mL
SMILES: Cc1c(-c2ccc(OCC(O)CO)cc2)oc2c1C(=O)C(=O)c1c-2ccc2c(C)cccc12 (stereo not shown) [BS-TA-301]
improvement of anti-Jurkat activity as compared with tanshinone I per se ([4]; vs tanshinone I): more than 3 fold | anti-RPMI8226 cell line activity (in words) ([6]; as compared with tanshinone I per se): improves the anti-RPMI8226 cell line activity significantly | anti-Becap37 activity (in words) ([9]; Table 2): superior to that of tanshinone I per se | anti-Hep G2 activity (in words) ([11]; Table 2): superior to that of tanshinone I per se | anti-RKO activity (in words) ([12]; Table 2): superior to that of tanshinone I per se | anti-U87 MG activity (in words) ([13]; Table 2): superior to that of tanshinone I per se | anti-Hela activity (in words) ([14]; Table 2): superior to that of tanshinone I per se | anti-CNE activity (in words) ([16]; Table 2): good antitumor activity | anti-SK-OV-3 activity (in words) ([20]; Table 2): superior to that of tanshinone I per se

From US9771343B2, “2-alkyl-or-aryl-substituted tanshinone derivatives, and preparation method and application thereof” (Hangzhou Bensheng Pharmaceutical Co., Ltd., priority 2011, dated 2017)
